Tests used:
[1] = molecular target: T1, maize starch synthase SSI-3 (STSI-3), N-terminally truncated SSI, first 93 amino acids of SSI-1 deleted, N-terminus SIVFVTGE (SEQ ID NO:66) (Zea mays, UniProt O49064); test: ADPGlc kinetics of starch synthase SSI-3; assay type: biochemical; conditions: 5 mg/ml amylopectin as primer, 37° C.
T1 sequence (O49064 with tags, fused parts or gaps): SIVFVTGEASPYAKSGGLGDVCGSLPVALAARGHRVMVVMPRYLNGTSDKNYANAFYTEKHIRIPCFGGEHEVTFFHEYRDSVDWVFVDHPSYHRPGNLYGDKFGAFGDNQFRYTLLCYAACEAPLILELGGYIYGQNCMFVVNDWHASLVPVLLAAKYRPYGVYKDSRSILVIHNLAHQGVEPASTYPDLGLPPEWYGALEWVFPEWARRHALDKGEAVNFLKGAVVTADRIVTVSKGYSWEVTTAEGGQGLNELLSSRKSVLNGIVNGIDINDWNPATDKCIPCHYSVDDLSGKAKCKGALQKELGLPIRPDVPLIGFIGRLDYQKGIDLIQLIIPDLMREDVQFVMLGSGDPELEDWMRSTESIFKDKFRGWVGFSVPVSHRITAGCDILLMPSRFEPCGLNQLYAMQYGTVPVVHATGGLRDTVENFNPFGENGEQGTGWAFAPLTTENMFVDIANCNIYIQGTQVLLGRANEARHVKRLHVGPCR
Text: FIG. 58. SSI-1, SSI-2, and SSI-3 construct design. Three forms of SSI were constructed in the pET expression (see Methods). pExs10a encodes SSI-1, the full length maize SSI (583 amino acids) which has the N-terminal sequence CVAELSREGP (SEQ ID NO:64). pExs8 encodes a truncated SSI, SSI-2, with amino acids # 8-52 deleted from the N-terminus of SSI-1 and which has the N-terminal sequence CVAELSR/DLG (SEQ ID NO:65). pExs1d encodes the most truncated form of SSI, SSI-3, with the first 93 amino acids deleted from SSI-1 and which has the N-terminal sequence SIVFVTGE (SEQ ID NO:66). A depiction of the waxygene, encoding GBSS, which has the N-terminal sequence ASAGMNW (SEQ ID NO:67), is also included for comparison. The amino acid motif KS/TGGL (SEQ ID NO:9), the putative binding site for ADGPGlc, in indicated by the triangles. The KS/TGGL (SEQ ID NO:9) motif is located 18 amino acids from the N-terminus in GBSS, while the motif is 106 amino acids from the N-terminus in maize SSI. Drawing not to scale.
5 mL of supernatant were used to assay STS and SBE activities as previously described (Preiss) with minor modification. […] The unincorporated [^14C]-ADPGlc was separated with Dowex anion exchange column (200-400 mesh, Sigma Chemical Co.). […] SBE activity was determined by phosphorylase stimulation assay. One unit of activity is defined as 1 mmol Glc incorporated into the a-glucan per min at. […]

[2] = molecular target: T2, maize starch synthase SSI-2 (STSI-2), N-terminally truncated SSI, amino acids 8-52 of SSI-1 deleted, N-terminus CVAELSR/DLG (SEQ ID NO:65) (Zea mays, UniProt O49064, DEL47-91); test: ADPGlc kinetics of starch synthase SSI-2; conditions: 5 mg/ml amylopectin as primer, 37° C.
T2 sequence (O49064 with tags, fused parts or gaps DEL47-91): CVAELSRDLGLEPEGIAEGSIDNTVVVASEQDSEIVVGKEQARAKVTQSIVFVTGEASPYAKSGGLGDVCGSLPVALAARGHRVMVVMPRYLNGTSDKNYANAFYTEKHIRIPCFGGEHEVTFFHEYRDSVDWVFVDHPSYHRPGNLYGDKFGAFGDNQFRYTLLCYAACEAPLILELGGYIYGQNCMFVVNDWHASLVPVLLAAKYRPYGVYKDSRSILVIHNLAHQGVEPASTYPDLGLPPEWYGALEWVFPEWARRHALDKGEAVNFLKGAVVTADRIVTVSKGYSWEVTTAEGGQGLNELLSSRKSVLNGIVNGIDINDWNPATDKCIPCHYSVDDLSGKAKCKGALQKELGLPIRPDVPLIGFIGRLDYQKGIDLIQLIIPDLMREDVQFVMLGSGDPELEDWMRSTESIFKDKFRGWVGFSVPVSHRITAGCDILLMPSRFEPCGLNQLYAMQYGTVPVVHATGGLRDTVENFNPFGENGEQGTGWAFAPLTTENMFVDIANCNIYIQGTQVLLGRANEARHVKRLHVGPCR
Method: (SEQ ID NO:64). pExs8 encodes a truncated SSI, SSI-2, with amino acids # 8-52 deleted from the N-terminus of SSI-1 and which has the N-terminal sequence CVAELSR/DLG (SEQ ID NO:65). pExs1d encodes the most truncated form of SSI, SSI-3, with the first 93 amino acids deleted from SSI-1 and which has the N-terminal sequence [sequence]
5 mL of supernatant were used to assay STS and SBE activities as previously described (Preiss) with minor modification. The reaction mixture for STS contained 100 mM Bicine buffer, 10 mg/mL glycogen, 0.5 mg/mL BSA, 0.5 M sodium citrate, 25 mM potassium acetate, 10 mM GSH, 3 mM [^14C]-ADPGlc (500 dpm/nmol) and enzyme in a final volume of 0.1 mL. The reaction was carried out at 25° C. for 15 min and terminated by boiling for 2 min. The unincorporated [^14C]-ADPGlc was separated with Dowex anion exchange column (200-400 mesh, Sigma Chemical Co.). One unit of activity is defined as 1 nmol Glc incorporated into the a-glucan per min at 25° C.
For the recombinant SS purification, the cell pellet was resuspended in sonication buffer (50 mM Tris-acetate, pH 7.5, 10 mM EDTA, and 5 mMDTT; 7 ml buffer per gram of cell mass), and cells were lysed using a Fisher 550 Sonic Dismembrator with 5×1 min. bursts with 30 sec. intervals. The homogenate was centrifuged at 9600 g for 30 minutes. SSI in the supernatant was then precipitated by slowly adding neutralized saturated ammonium sulfate to 40% saturation. After stirring on ice for an additional 50 minutes, proteins were collected by centrifugation at 12500 g for 45 minutes. The protein pellet was then redissolved in buffer A (50 mM Tris, pH 5.5, 1 mM EDTA, and 5 mM DTT) containing 0.1 M KCl and dialyzed against the same buffer, with one change of buffer. After dialysis, the sample was centrifuged at 13000 g for 20 minutes to remove insoluble materials. The resulting supernatant was loaded onto amylase affinity column pre-equilibrated with dialysis buffer, and the flow through was collected. […]

Structure (SMILES): Nc1ncnc2c1ncn2[C@@H]1O[C@H](COP(=O)(O)OP(=O)(O)O[C@H]2O[C@H](CO)[C@@H](O)[C@H](O)[C@H]2O)[C@@H](O)[C@H]1O [ADPGlc, adenosine diphosphate glucose]
- Vm (ADPGlc kinetics) ([1]; +citrate): 26.4 ± 1.4 μmol/min/mg protein
- Vm (ADPGlc kinetics) ([1]; −citrate): 14.7 ± 1.3 μmol/min/mg protein
- Vm (ADPGlc kinetics) ([2]; +citrate): 32.6 ± 0.8 μmol/min/mg protein
- Vm (ADPGlc kinetics) ([2]; −citrate): 11.7 ± 0.7 μmol/min/mg protein

Source: patent US7285703B2, “Plant like starches and the method of making them in hosts” (BASF Plant Science GmbH, priority 1998, dated 2007)
